Laboratory results published in patent US20120172339A1, “ANGIOGENIC RESORCINOL DERIVATIVES” (Northeastern University, priority 2009, published 2012).
Where two headings read alike, the source gives them in different places.

Legend:
CB1 cannabinoid receptor = CB1 cannabinoid receptor (Homo sapiens, UniProt P21554); test: CB1 receptor binding affinity
Protocol: (§1) Some disclosed compounds were tested for CB1 and CB2 receptors binding affinity (Table 5). As used herein “binding affinity” is represented by the Ki value. The Ki value is the affinity constant and describes the affinity of the compound for the receptor. […] A detailed description of the methods used to test “binding affinity” of compounds is given in Makriyannis, et al., US 2007, 0135388 and in Papahatjis, et al. J. Med. Chem. (2007) 4048, the content of each of which is hereby incorporated by reference.

CB2 cannabinoid receptor = CB2 cannabinoid receptor (Homo sapiens, UniProt P34972); test: CB2 receptor binding affinity
Protocol: as §1

CB1-KO-HUVEC cells = test: MMP (matrix metalloproteinase) activity in CB1-KO-HUVEC; type: cell-based, human; settings: FIGS. 7 and 8, read-out: EC50 for induction of MMP activity
Description: For aspects disclosed herein, promotion of angiogenic responses under in vitro and ex vivo conditions as well as increasing in MMP (matrix metalloproteinase) activity, correlates well with the ability of anandamide and its synthetic analog (R)-methanandamide to bind to and modulate the putative “non CB1/non CB2 anandamide receptor”. Thus, the compounds described herein where tested using in vitro angiogenesis assays (cord formation by endothelial cells in extracellular matrix mimicking matrigel), ex vivo angiogenesis assay (sprouting or blood capillary formation under ex vivo conditions) as well as for MMP activity in CB1 receptor knock out human umbilical vein endothelial cells (HUVEC) (CB1-KO-HUVEC).
Some disclosed compounds were tested using in vitro angiogenesis assays (cord formation by endothelial cells in extracellular matrix mimicking matrigel, Table 4), ex vivo angiogenesis assay (sprouting or blood capillary formation under ex vivo conditions, Table 4) as well as for MMP (matrix metalloproteinase) activity in CB1 receptor knock out human umbilical vein endothelial cells (HUVEC) (CB1-KO-HUVEC, Figures A and B). Stimulation of angiogenic responses under in vitro and ex vivo conditions as well as increasing in MMP activity, correlates well with the ability of the compound to bind to and modulate the putative “non CB1/non CB2 anandamide receptor”. […] A detailed description of the angiogenesis and MMP activity assays is given in Mukhopadhyay (US 2007, 0244200, and Balas, et al., J. Med. Chem. (2009) ASAP the content of each of which is hereby incorporated by reference.

Sequence of CB2 cannabinoid receptor (P34972 whole entry): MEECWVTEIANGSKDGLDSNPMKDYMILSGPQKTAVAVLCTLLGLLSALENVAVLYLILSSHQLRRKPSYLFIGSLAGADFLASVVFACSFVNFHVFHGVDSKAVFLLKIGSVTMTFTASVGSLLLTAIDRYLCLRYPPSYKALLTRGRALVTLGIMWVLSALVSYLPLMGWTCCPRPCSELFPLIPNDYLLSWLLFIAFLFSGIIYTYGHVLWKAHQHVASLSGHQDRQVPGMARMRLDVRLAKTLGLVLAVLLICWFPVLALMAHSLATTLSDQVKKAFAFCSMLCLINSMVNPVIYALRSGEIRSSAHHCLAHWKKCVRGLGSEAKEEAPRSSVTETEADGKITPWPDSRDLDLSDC
Sequence of CB1 cannabinoid receptor (P21554 whole entry): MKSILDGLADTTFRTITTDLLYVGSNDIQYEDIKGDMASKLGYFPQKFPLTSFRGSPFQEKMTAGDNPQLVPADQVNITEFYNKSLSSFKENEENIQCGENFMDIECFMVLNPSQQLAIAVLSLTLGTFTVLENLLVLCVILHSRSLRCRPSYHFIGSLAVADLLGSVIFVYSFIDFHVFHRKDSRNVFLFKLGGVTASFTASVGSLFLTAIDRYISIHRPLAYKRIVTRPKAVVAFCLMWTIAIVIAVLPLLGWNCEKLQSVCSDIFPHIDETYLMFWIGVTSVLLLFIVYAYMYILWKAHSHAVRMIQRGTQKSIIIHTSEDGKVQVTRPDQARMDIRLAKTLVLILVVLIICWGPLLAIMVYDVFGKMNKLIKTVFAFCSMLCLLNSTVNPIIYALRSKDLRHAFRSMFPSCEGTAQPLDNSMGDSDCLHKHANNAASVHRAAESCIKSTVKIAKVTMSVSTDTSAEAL

| Compound | Ki (CB1 cannabinoid receptor; read-out: CB1 Receptor Ki) [µM] | Ki (CB2 cannabinoid receptor; read-out: CB2 Receptor Ki) [µM] | other results |
| --- | --- | --- | --- |
| C=C(C)[C@@H]1CCC(C)=C[C@H]1c1c(O)cc(O)cc1CCCCBr (relative stereo) [Compound 4.16] | 12.5 | 5.73 | – |
| CCCCCc1cc(O)cc(O)c1[C@@H]1C=C(C)[C@@H]2C[C@H]1C2(C)C [Compound 12.2] | 10.1 | 19 | – |
| C=C(C)[C@@H]1CCC(C)=C[C@H]1c1c(O)cc(CCCCCCC)c([C@@H]2C=C(C)CC[C@H]2C(=C)C)c1O (relative stereo) [Compound 5.3, 2,4-bis-[3-3,4-trans-p-Menthadien-(1,8)-yl]-5-heptylresorcinol] | > 10 | > 10 | EC50 (CB1-KO-HUVEC cells; Homo sapiens): 0.05 to 0.07 µM |
| C=C(C)[C@@H]1CCC(C)=C[C@H]1c1c(O)cc(CBr)cc1O (relative stereo) [Compound 3.12, (−)-2-[3-3,4-trans-p-Menthadien-(1,8)-yl]-5-(bromomethyl)resorcinol] | 2.2 | 10.8 | – |
| C=C(C)[C@@H]1CCC(C)=C[C@H]1c1c(O)cc(O)cc1CC#N | – | – | melting point: 131 to 133 °C |
| CCCCCc1cc(O)c([C@H]2C=C(C)[C@H]3C[C@@H]2C3(C)C)c(O)c1 [Compound 8.2, (+)-2-[(1R, 4S, 5S)-2,6,6-trimethylbicyclo[3.1.1]hept-2-en-4-yl]-5-pentyl-resorcinol] | – | – | EC50 (CB1-KO-HUVEC cells; Homo sapiens): 0.05 to 0.07 µM |
| [2H]C([2H])([2H])CCc1cc(O)cc(O)c1[C@@H]1C=C(C)CC[C@H]1C(=C)C (relative stereo) [Compound 4.5, (−)-4-[3-3,4-trans-p-Menthadien-(1,8)-yl]-5-[3′-(^2H3)-propyl]resorcinol] | > 20 | 19 | – |
| C=C(C)[C@@H]1CCC(C)=C[C@H]1c1c(O)cc(I)cc1O (relative stereo) [Compound 3.11, (−)-2-[3-3,4-trans-p-Menthadien-(1,8)-yl]-5-iodoresorcinol] | 5.13 | 2.19 | melting point: 128 to 130 °C |
| CCCCC/C=C\C/C=C\C/C=C\C/C=C\CCCC(=O)N[C@H](C)CO [(R)-methanandamide, reference compound] | – | – | EC50 (CB1-KO-HUVEC cells): ~0.042 µM |
| C=C(C)[C@@H]1CCC(C)=C[C@H]1c1c(O)cc(CC(=O)OC)cc1O (relative stereo) [Compound 3.14, (−)-2-[3-3,4-trans-p-Menthadien-(1,8)-yl]-5-(2-methoxy-2-oxoethyl)resorcinol] | 2.37 | 0.62 | – |
| [2H]C([2H])([2H])CCc1cc(O)c([C@@H]2C=C(C)CC[C@H]2C(=C)C)c(O)c1 (relative stereo) [Compound 3.5, (−)-2-[3-3,4-trans-p-Menthadien-(1,8)-yl]-5-[3′-(^2H3)-propyl]resorcinol] | 8.39 | 2.58 | – |
| C=C(C)[C@@H]1CCC(C)=C[C@H]1c1c(O)cc(O)cc1I (relative stereo) [Compound 4.11, (−)-4-[3-3,4-trans-p-Menthadien-(1,8)-yl]-5-iodoresorcinol] | 13.1 | 10.5 | EC50 (CB1-KO-HUVEC cells; Homo sapiens): 0.05 to 0.07 µM |
| C=C(C)[C@@H]1CCC(C)=C[C@H]1c1c(O)cc(F)cc1O (relative stereo) [Compound 3.8, (−)-2-[3-3,4-trans-p-Menthadien-(1,8)-yl]-5-flouororesorcinol] | 14.6 | 43.4 | EC50 (CB1-KO-HUVEC cells; Homo sapiens): 0.05 to 0.07 µM |
| C=C(C)[C@@H]1CCC(C)=C[C@H]1c1c(O)cc(CCCCCCC)cc1O (relative stereo) [Compound 3.3, (−)-2-[3-3,4-trans-p-Menthadien-(1,8)-yl]-5-heptylresorcinol] | – | – | Ki (CB1 cannabinoid receptor): 0.651 µM; Ki (CB2 cannabinoid receptor): 1.42 µM |
| CCCCCc1cc(O)c([C@@H]2C=C(C)[C@@H]3C[C@H]2C3(C)C)c(O)c1 [Compound 11.2, (−)-2-[(1S, 4R, 5R)-2,6,6-trimethylbicyclo[3.1.1]hept-2-en-4-yl]-5-pentyl-resorcinol] | 0.837 | 0.565 | – |
| C=C(C)[C@@H]1CCC(C)=C[C@H]1c1c(O)cc(O)cc1Br (relative stereo) [Compound 4.10, (−)-4-[3-3,4-trans-p-Menthadien-(1,8)-yl]-5-bromoresorcinol] | 7.46 | 13.3 | – |
| CCCCCc1cc(O)cc(O)c1[C@H]1C=C(C)[C@H]2C[C@@H]1C2(C)C [Compound 9.2, (+)-4-[(1R, 4S, 5S)-2,6,6-trimethylbicyclo[3.1.1]hept-2-en-4-yl]-5-pentyl-resorcinol] | 9.25 | 4.94 | – |
| C=C(C)[C@@H]1CCC(C)=C[C@H]1c1c(O)cc(CCCCBr)cc1O (relative stereo) [Compound 3.16, (−)-2-[3-3,4-trans-p-Menthadien-(1,8)-yl]-5-(4-bromobutyl)resorcinol] | – | – | Ki (CB1 cannabinoid receptor): 0.192 µM; Ki (CB2 cannabinoid receptor): 0.059 µM |
| C=C(C)[C@@H]1CCC(C)=C[C@H]1c1c(O)cc(O)cc1O (relative stereo) [Compound 3.7, (−)-2-[3-3,4-trans-p-Menthadien-(1,8)-yl]-5-hydroxyresorcinol] | 21.5 | 41.7 | – |
| C=C(C)[C@@H]1CCC(C)=C[C@H]1c1c(O)cc(O)cc1CCCCCCC (relative stereo) [Compound 4.3, (−)-4-[3-3,4-trans-p-Menthadien-(1,8)-yl]-5-heptylresorcinol] | – | – | Ki (CB1 cannabinoid receptor): 0.25 µM; Ki (CB2 cannabinoid receptor): 0.398 µM |
| C=C(C)[C@@H]1CCC(C)=C[C@H]1c1c(O)cc(O)cc1F (relative stereo) [Compound 4.8, (−)-4-[3-3,4-trans-p-Menthadien-(1,8)-yl]-5-flouororesorcinol] | 4.15 | 7.21 | melting point: 105 to 106 °C |
| C=C(C)[C@@H]1CCC(C)=C[C@H]1c1c(O)cc(O)cc1Cl (relative stereo) [Compound 4.9, (−)-4-[3-3,4-trans-p-Menthadien-(1,8)-yl]-5-chlororesorcinol] | 3.18 | 4.97 | melting point: 101 to 103 °C |
| C=C(C)[C@@H]1CCC(C)=C[C@H]1c1c(O)cc(CC#N)cc1O (relative stereo) [Compound 3.13, (−)-2-[3-3,4-trans-p-Menthadien-(1,8)-yl]-5-(cyanomethyl)resorcinol] | 1.44 | 4.2 | – |
| C=C(C)[C@@H]1CCC(C)=C[C@H]1c1c(O)cc(CN=[N+]=[N-])cc1O (relative stereo) [Compound 3.15, (−)-2-[3-3,4-trans-p-Menthadien-(1,8)-yl]-5-(azidomethyl)resorcinol] | 3.56 | 2.03 | EC50 (CB1-KO-HUVEC cells; Homo sapiens): 0.05 to 0.07 µM |
| C=C(C)[C@@H]1CCC(C)=C[C@H]1c1c(C)cc(O)cc1O (relative stereo) [Compound 4.1, (−)-4-[3-3,4-trans-p-Menthadien-(1,8)-yl]-5-methylresorcinol] | 10 | 31.1 | – |
| C=C(C)[C@@H]1CCC(C)=C[C@H]1c1c(O)cc(C)cc1O (relative stereo) [Compound 3.1, (−)-2-[3-3,4-trans-p-Menthadien-(1,8)-yl]-5-methylresorcinol] | 16.7 | 47.7 | – |
| C=C(C)[C@@H]1CCC(C)=C[C@H]1c1c(O)cc(/C=C\CCCCC)cc1O [Compound 3.6, (−)-2-[3-3,4-trans-p-Menthadien-(1,8)-yl]-5-(1,2-cis-hepten-1-yl)resorcinol] | – | – | EC50 (CB1-KO-HUVEC cells; Homo sapiens): 0.05 to 0.07 µM |
| C=C(C)[C@@H]1CCC(C)=C[C@H]1c1c(O)cc(O)cc1CCCCC (relative stereo) [Compound 4.2, (−)-4-[3-3,4-trans-p-Menthadien-(1,8)-yl]-5-pentylresorcinol, reference compound] | – | – | Ki (CB1 cannabinoid receptor): 4.78 µM; Ki (CB2 cannabinoid receptor): 9.64 µM |
